Data: patent publication US20140206635A1, “METAL-SALEN COMPLEX COMPOUND, LOCAL ANESTHETIC AND ANTINEOPLASTIC DRUG” (IHI CORPORATION, priority 2011, published 2014)

Assays:
[1] = Temperature rise under near infrared radiation; assay type: physicochemical; conditions: 100 mmol in agarose; near infrared 600 nm to 1600 nm, 10 W
Experimental: Next, a diatomic Fe salen complex compound (CAS#14167-12-5; produced by Tokyo Chemical Industry Co., Ltd.) was dissolved in agarose to produce a 100 mmol solution, which was put in a test tube, thereby preparing a sample. A sample of pure water put in a test tube was also prepared as a comparison. Then, these samples were respectively exposed to medical near infrared radiation (wavelengths: 600 nm to 1600 nm) by TOKYO IKEN CO., LTD. by using Super Lizer PX Type I (output: 10 W).

[2] = Temperature rise of ointments under AC magnetic field; assay type: physicochemical; conditions: AC field 258 A, 400 kHz, 51.74 mT; for temperature rise of ointment: 300 seconds
Experimental: The aforementioned Fe salen complex compound was mixed with Vaseline, which is an adjuster for ointments, as a base at concentrations of 100 mmol and 200 mmol, respectively, to produce ointments. Then, the relationship between time and a temperature rise was measured by applying an AC magnetic field to these ointments under conditions of 258 A, 400 kHz, and 51.74 mT.
Then, the compound expressed by the aforementioned Formula (I) was mixed with Kenalog, which is an ointment for stomatitis, as a base at concentrations of 100 mmol and 200 mmol, respectively, to produce ointments. Then, the relationship between time and a temperature rise was measured by applying an AC magnetic field to these ointments under conditions of 258 A, 400 kHz, and 51.74 mT.
Next, as comparisons, the relationship between time and a temperature rise was measured by applying an AC magnetic field to each of 200 mg Vaseline and 200 mg Kenalog under conditions of 258 A, 400 kHz, and 51.74 mT.

[3] = Magnetic guidance of i.v. drug to right kidney, SNR by MRI; assay type: in vivo; conditions: mouse, intravenous; about 0.3 T at right kidney; after 10 minutes; vs left kidney and control
Description: Next, an guidance example using a guidance system will be described. […] The metal plate 236, especially an iron plate, is placed between the pair of magnets 230 and 232 so that a magnetic field of locally uniform and strong strength can be created. An electrical magnet can be used instead of a magnet to modify the magnetic force generated in this guidance system. The magnetism-generating means can be moved to a target position of the individual on a table to allow the pair of magnetism-generating means to move in the X, Y, and Z directions. The tissue of an individual can be placed in the region of the magnetic field to concentrate the drug in the tissue.
More specifically, for example, the aforementioned Fe salen complex compound (drug concentration: 5 mg/mL (15 mM)) was injected intravenously into a mouse weighing about 30 g, a laparotomy was performed, and the mouse was placed on the iron plate 236 to locate its right kidney between the pair of magnets 230 and 232. […]
Together with the left kidney and a kidney to which no field was applied (control), a magnetic field was applied to the right kidney of the mouse; and after 10 minutes the SNR was measured by MRI in T1 mode and T2 mode.

[4] = Magnetic field-magnetization curve (MPMS7); assay type: physicochemical; conditions: magnetic field less than 10000 Oe (1 T); 37 degrees Celsius
Description: However, when the magnetic field exceeds 10000 Oe (1 T), the Co salen complex compound or the Mn salen complex compound has large magnetization and is most suited for magnetic induction drug delivery systems which use superconducting magnets.

Clone M3 melanoma cells = test: Melanoma growth in mouse tail with local magnetic field; assay type: in vivo; conditions: for melanoma extension (area of melanoma pigmentation): 12 days after initial injection, saline group 100%; for histological examination, tumor expansion of melanoma: HE, anti-Ki-67, anti-Cyclyn D1 staining
Experimental: Melanoma was established in mouse tails in vivo by local grafting of cultured melanoma cells (Clone M3 melanoma cells). Incidentally, FIG. 11(1) is a photograph showing the effects of a saline group (saline) into which the saline water was injected instead of the Fe salen complex compound; FIG. 11(2) is a photograph showing the effects of a group (SC) into which the Fe salen complex compound was injected without applying the magnetic field; and FIG. 11(3) is a photograph showing the effect of a group (SC+Mag) into which the Fe salen complex compound was injected while applying the magnetic field (n=7-10).
The Fe salen complex compound (50 mg/kg) was administered intravenously via tail vein, followed by local application of a magnetic field by the use of a commercially available bar magnet (630 mT, a cylindrical neodymium magnet, 150 mm long and 20 mm in diameter). Application of a bar magnet was performed with 3 hour gentle contact with the site of melanoma immediately after injection of the Fe salen complex compound for 10-14 days.
Application of the bar magnet was performed in such a way so that the magnetic field strength became maximal over the area of expected melanoma extension, which was approximately […] or shorter in a mouse tail for a growth period of 2 weeks. Twelve days after the initial injection of the Fe salen complex compound, the extension of melanoma was evaluated by assessing the area of melanoma pigmentation.
A histological examination was performed as shown in FIG. 13 by means of Hematoxylin-Eosin staining and immuno-histochemical staining with an anti-Ki-67 antibody and an anti-Cyclyn D1 antibody which are both tumor proliferation markers in tissue sections.

rat L6 cell = test: Rat L6 cell culture with bar magnet, cell count proximal vs distal to the magnet; assay type: cell-based; conditions: after 48 hours, bar magnet at flask
Experimental: Culture medium was sprinkled with metal-salen complex compound powder, which is obtained with respect to each of the Fe salen complex compound, the Mn salen complex compound, the Cr salen complex compound, and the Co salen complex compound by the above-described method, in amounts allowing magnetic attraction to be visibly observed at a rat L6 cell confluence of 30%, and the state of the medium was photographed after 48 hours.
Then, after 48 hours, the bottom face of the rectangular flask was photographed from one end to the other, and the cell count was calculated. Incidentally, Referring to FIG. 8, a “position proximal to the magnet” means within a projection area of the magnet end surface at the bottom of the rectangular flask, and a “position distal to the magnet” means a region on the side opposite the magnet end surface at the bottom of the rectangular flask.
As a result, the magnetic drugs and the system equipped with magnetism-generating means according to the present invention can thus allow the drugs to become concentrated in target tissues and tissues of individuals.

| Compound | temperature of sample 300 seconds later [1] | temperature of sample immediately after the measurement (0 second) [1] [degrees Celsius] | temperature of ointment immediately after the measurement (0 second) ([2]; Kenalog base, 100 mmol) [degrees Celsius] | temperature rise of ointment ([2]; Kenalog base, 200 mmol) | temperature of ointment immediately after the measurement (0 second) ([2]; Kenalog base, 200 mmol) [degrees Celsius] | temperature of ointment immediately after the measurement (0 second) ([2]; Vaseline base, 100 mmol) [degrees Celsius] | temperature rise of ointment ([2]; Vaseline base, 200 mmol) | temperature of ointment immediately after the measurement (0 second) ([2]; Vaseline base, 200 mmol) [degrees Celsius] | drug retention in right kidney (SNR by MRI, T1 and T2 mode) [3] | magnetization [4] | melanoma extension (area of melanoma pigmentation) (Clone M3 melanoma cells; SC group: 50 mg/kg i.v., no magnetic field) [%] | melanoma extension (area of melanoma pigmentation) (Clone M3 melanoma cells; SC+Mag group: 50 mg/kg i.v. plus bar magnet 630 mT, 3 hour) [%] | histological examination, tumor expansion of melanoma (Clone M3 melanoma cells; SC, no magnetic field) | histological examination, tumor expansion of melanoma (Clone M3 melanoma cells; with magnetic force field application) | number of cells at position proximal to the magnet vs position distal to the magnet (rat L6 cell) |
| --- | --- | --- | --- | --- | --- | --- | --- | --- | --- | --- | --- | --- | --- | --- | --- |
| Oc1ccccc1C=NCCN=Cc1ccccc1O.[Fe+2] [diatomic Fe salen complex compound] | approximately 53 degrees Celsius | 26 | – | – | – | – | – | – | – | – | – | – | – | – | – |
| [Fe+2].[O-]c1ccccc1C=NCCN=Cc1ccccc1[O-] [Fe salen complex compound] | – | – | 35 | approximately 5 degrees Celsius | 35 | 35 | approximately 5 degrees Celsius | 35 | possible to make the drug stay in the right kidney | largest magnetization | 63.68±16.3 | 9.05±3.42 | tumor expansion of melanoma diminished | mostly disappeared | dramatically lower number of cells |
